Data taken from patent US7229825B2, “Double-transfected cell line useful for the identification of transport inhibitors” (Deutches Krebsforschungszentrum Stiftung des Offentlichen …, priority 2001, dated 2007).
Like-named read-outs stand apart in the source and are kept apart here. One block for each molecule: values may come before it.

How the values were obtained:
[1] = test system: human OATP8 and MRP2 (MDCK-MRP2/OATP8 cells)
MDCKII cell lines = assay: Transcellular leakage of [14C]inulin carboxylic acid across MDCKII cell monolayers; assay type: cell-based, canine; conditions: 50 μM basolateral, 30 min, all four MDCKII cell lines
Method: The transcellular leakage was determined by incubating cells with 50 μM [^14C]inulin carboxylic acid in the basolateral compartments for 30 min and measuring the radioactivity in the apical compartments. For all four MDCKII cell lines used in this work the transcellular leakage was lower than 1%.

[2] = test system: human OATP8 and MRP2 (MDCK-MRP2/OATP8 cells); assay: Transcellular transport of organic anions across MDCK-MRP2/OATP8 cells on Transwell membrane inserts; conditions: substrate in basolateral compartment, 37° C., apical compartment measured; MDCK-MRP2/OATP8 compared with MDCK-OATP8, MDCK-Co (and MDCK-MRP2) cells
[3] = molecular target: T1, human OATP8 (MDCK-OATP8 cells) (Homo sapiens, UniProt Q9NPD5); assay: Inhibition of [3H]BSP accumulation and transport in MDCK-OATP8 cells; conditions: pre-incubation 20 min at room temperature, up to a concentration of 50 μM
T1 sequence (Q9NPD5 1-702): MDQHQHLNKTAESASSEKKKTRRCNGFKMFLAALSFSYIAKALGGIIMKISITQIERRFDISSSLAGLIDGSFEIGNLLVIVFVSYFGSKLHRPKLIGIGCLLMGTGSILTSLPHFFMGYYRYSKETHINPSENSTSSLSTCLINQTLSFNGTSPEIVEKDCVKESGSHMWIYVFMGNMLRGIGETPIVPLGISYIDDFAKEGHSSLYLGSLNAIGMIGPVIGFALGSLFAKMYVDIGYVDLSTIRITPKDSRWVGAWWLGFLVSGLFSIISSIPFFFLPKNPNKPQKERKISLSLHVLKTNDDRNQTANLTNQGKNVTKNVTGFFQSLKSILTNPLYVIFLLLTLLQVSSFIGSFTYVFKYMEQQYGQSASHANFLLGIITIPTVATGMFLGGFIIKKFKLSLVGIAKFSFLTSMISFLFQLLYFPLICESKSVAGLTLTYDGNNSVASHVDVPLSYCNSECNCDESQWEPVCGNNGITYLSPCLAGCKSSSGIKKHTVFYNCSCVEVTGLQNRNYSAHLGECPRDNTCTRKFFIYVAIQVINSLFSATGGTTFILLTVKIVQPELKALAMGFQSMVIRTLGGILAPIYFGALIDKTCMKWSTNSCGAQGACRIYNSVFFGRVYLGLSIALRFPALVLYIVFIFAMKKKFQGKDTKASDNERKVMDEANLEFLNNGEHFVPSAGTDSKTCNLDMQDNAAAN

[4] = test system: human OATP8 and MRP2 (MDCK-MRP2/OATP8 cells); assay: Inhibition of transcellular [3H]BSP transport in MDCK-MRP2/OATP8 cells; assay type: cell-based; conditions: 1 μM [3H]BSP, 30 min, 37° C.
human MRP2 = human MRP2 (Homo sapiens, UniProt Q92887); assay: Inhibition of [3H]LTC4 transport into HEK-MRP2 membrane vesicles; assay type: biochemical; conditions: inhibitor at 50 μM
[5] = substrate: O=C1OC(c2ccc(O)c(S(=O)(=O)O)c2)(c2ccc(O)c(S(=O)(=O)O)c2)c2c(Br)c(Br)c(Br)c(Br)c21; assay: ATP-dependent transport of [3H]BSP into inside-out membrane vesicles from HEK-MRP2 cells; assay type: biochemical, human; conditions: other: BSP concentrations between 1 and 10 μM; pH 7.4; 37.0 °C
Method: Vesicle Transport Studies. Transport of [^3H]BSP into membrane vesicles was measured by the rapid filtration method (Keppler et al. 1998). Briefly, membrane vesicles (30 μg protein) were incubated in the presence of 4 mM ATP, 10 mM creatine phosphate, 100 μg/ml creatine kinase, and [^3H]BSP in an incubation buffer (250 mM sucrose, 10 mM Tris/HCl, pH 7.4) in a final volume of 55 μl at 37° C. Aliquots (15 μl) were taken at the indicated time points, diluted in 1 ml ice-cold incubation buffer, and immediately filtered through presoaked nitrocellulose membrane (0.2 μm pore size, Schleicher & Schüll, Dassel, Germany). Filters were rinsed twice with 5 ml of incubation buffer, dissolved in liquid scintillation fluid, and counted for radioactivity. In control experiments, ATP was replaced by an equal concentration of 5′-AMP. ATP-dependent transport was calculated by subtracting values obtained in the presence of 5′-AMP from those obtained in the presence of ATP.

transcellular transport (basolateral to apical) [1]: higher transport rate
Molecule: Cc1ccc(N(CC(=O)O)CC(=O)O)c(OCCOc2cc(-c3c4cc(Cl)c(=O)cc-4oc4cc(O)c(Cl)cc34)ccc2N(CC(=O)O)CC(=O)O)c1.N.N.N.N.N [Fluo-3, 1-[2-amino-5-(2,7-dichloro-6-hydroxy-3-oxo-3H-xanthen-9-yl)]-2-(2′-amino-5′-methyl-phenoxyl)-ethane-N,N,N′,N′-tetraacetic acid penta-ammonium salt]

Molecule: Inulin carboxylic acid [[^14C]Inulin carboxylic acid]
transcellular leakage (MDCKII cell lines): lower than 1%

transcellular transport (basolateral to apical) [2]: no difference in transport rates
Molecule: C[C@H](CCC(=O)NCCS(=O)(=O)O)[C@H]1CC[C@H]2[C@@H]3[C@H](O)C[C@@H]4C[C@H](O)CC[C@]4(C)[C@H]3C[C@H](O)[C@]12C [[^3H]cholyl taurine, cholyl taurine]

transcellular transport (basolateral to apical) [1]: much higher velocities
Molecule: CCCCC/C=C\C\C=C/C=C/C=C/[C@@H](SC[C@H](NC(=O)CC[C@H](N)C(=O)O)C(=O)NCC(=O)O)[C@@H](O)CCCC(=O)O [LTC4, leukotriene C4]

Molecule: O=[N+]([O-])c1ccc(Cl)c([N+](=O)[O-])c1 [CDNB, 1-chloro-2,4-dinitrobenzene]
effect on intracellular accumulation of [3H]BSP in MDCK-OATP8 cells [3]: not inhibited
effect on transcellular transport of [3H]BSP in MDCK-OATP8 cells [3]: not inhibited
effect on intracellular accumulation of [3H]BSP in MDCK-MRP2/OATP8 cells ([4]; different concentrations): enhanced
effect on transcellular transport of [3H]BSP in MDCK-MRP2/OATP8 cells ([4]; different concentrations): markedly inhibited

[3H]LTC4 transport into HEK-MRP2 membrane vesicles (human MRP2): 38 % of control
Molecule: CO[C@H]1/C=C/O[C@@]2(C)Oc3c(C)c([O-])c4c(O)c(cc(O)c4c3C2=O)NC(=O)/C(C)=C\C=C\[C@H](C)[C@H](O)[C@@H](C)[C@@H](O)[C@@H](C)[C@H](OC(C)=O)[C@@H]1C.[Na+] [rifamycin SV]
intracellular accumulation of [3H]BSP in MDCK-MRP2/OATP8 cells [4]: about 50 % of control
effect on transcellular transport of [3H]BSP in MDCK-MRP2/OATP8 cells ([4]; different concentrations): inhibited more strongly

[3H]LTC4 transport into HEK-MRP2 membrane vesicles (human MRP2): 50 % of control
Molecule: CO[C@H]1/C=C/O[C@@]2(C)Oc3c(C)c(O)c4c(O)c(c(/C=N/N5CCN(C)CC5)c(O)c4c3C2=O)NC(=O)/C(C)=C\C=C\[C@H](C)[C@H](O)[C@@H](C)[C@@H](O)[C@@H](C)[C@H](OC(C)=O)[C@@H]1C [rifampicin]
transcellular transport (basolateral to apical) [2]: significantly higher transcellular transport
intracellular accumulation of [3H]BSP in MDCK-MRP2/OATP8 cells [4]: about 50 % of control

transcellular transport (basolateral to apical) [2]: much higher velocities
Molecule: C[C@]12CC[C@@H]3c4ccc(O)cc4CC[C@H]3[C@@H]1CC[C@@H]2O[C@@H]1O[C@H](C(=O)O)[C@@H](O)[C@H](O)[C@H]1O [E217bG, 17b-glucuronosyl estradiol]

B1: human MRP2 (Homo sapiens) (protein)
chain: MLEKFCNSTFWNSSFLDSPEADLPLCFEQTVLVWIPLGYLWLLAPWQLLHVYKSRTKRSSTTKLYLAKQVFVGFLLILAAIELALVLTEDSGQATVPAVRYTNPSLYLGTWLLVLLIQYSRQWCVQKNSWFLSLFWILSILCGTFQFQTLIRTLLQGDNSNLAYSCLFFISYGFQILILIFSAFSENNESSNNPSSIASFLSSITYSWYDSIILKGYKRPLTLEDVWEVDEEMKTKTLVSKFETHMKRELQKARRALQRRQEKSSQQNSGARLPGLNKNQSQSQDALVLEDVEKKKKKSGTKKDVPKSWLMKALFKTFYMVLLKSFLLKLVNDIFTFVSPQLLKLLISFASDRDTYLWIGYLCAILLFTAALIQSFCLQCYFQLCFKLGVKVRTAIMASVYKKALTLSNLARKEYTVGETVNLMSVDAQKLMDVTNFMHMLWSSVLQIVLSIFFLWRELGPSVLAGVGVMVLVIPINAILSTKSKTIQVKNMKNKDKRLKIMNEILSGIKILKYFAWEPSFRDQVQNLRKKELKNLLAFSQLQCVVIFVFQLTPVLVSVVTFSVYVLVDSNNILDAQKAFTSITLFNILRFPLSMLPMMISSMLQASVSTERLEKYLGGDDLDTSAIRHDCNFDKAMQFSEASFTWEHDSEATVRDVNLDIMAGQLVAVIGPVGSGKSSLISAMLGEMENVHGHITIKGTTAYVPQQSWIQNGTIKDNILFGTEFNEKRYQQVLEACALLPDLEMLPGGDLAEIGEKGINLSGGQKQRISLARATYQNLDIYLLDDPLSAVDAHVGKHIFNKVLGPNGLLKGKTRLLVTHSMHFLPQVDEIVVLGNGTIVEKGSYSALLAKKGEFAKNLKTFLRHTGPEEEATVHDGSEEEDDDYGLISSVEEIPEDAASITMRRENSFRRTLSRSSRSNGRHLKSLRNSLKTRNVNSLKEDEELVKGQKLIKKEFIETGKVKFSIYLEYLQAIGLFSIFFIILAFVMNSVAFIGSNLWLSAWTSDSKIFNSTDYPASQRDMRVGVYGALGLAQGIFVFIAHFWSAFGFVHASNILHKQLLNNILRAPMRFFDTTPTGRIVNRFAGDISTVDDTLPQSLRSWITCFLGIISTLVMICMATPVFTIIVIPLGIIYVSVQMFYVSTSRQLRRLDSVTRSPIYSHFSETVSGLPVIRAFEHQQRFLKHNEVRIDTNQKCVFSWITSNRWLAIRLELVGNLTVFFSALMMVIYRDTLSGDTVGFVLSNALNITQTLNWLVRMTSEIETNIVAVERITEYTKVENEAPWVTDKRPPPDWPSKGKIQFNNYQVRYRPELDLVLRGITCDIGSMEKIGVVGRTGAGKSSLTNCLFRILEAAGGQIIIDGVDIASIGLHDLREKLTIIPQDPILFSGSLRMNLDPFNNYSDEEIWKALELAHLKSFVASLQLGLSHEVTEAGGNLSIGQRQLLCLGRALLRKSKILVLDEATAAVDLETDNLIQTTIQNEFAHCTVITIAHRLHTIMDSDKVMVLDNGKIIECGSPEELLQIPGPFYFMAKEAGIENVNSTKF
notes: expressed in transfected cells
Km [5]: 12 µM
